“Also recorded” adds a separate entry of the source.
Assay: Immediate release of calcium ion of various salts by a calcium test kit by EM Quant
Type: physicochemical
Details: contact with water

| Molecule | Immediate release of calcium ion (availability of calcium ion) |
| --- | --- |
| CC(O)C(=O)[O-].CC(O)C(=O)[O-].O.O.O.O.O.[Ca+2] (centres unmarked) [Calcium lactate pentahydrate] | most readily available calcium ion source |
| Calcium ascorbate [Calcium ascorbate (citrate)] | most readily available calcium ion source; also recorded: provided calcium ions on contact with water |

— US10638959B2, “Oral pH and buffering capacity modifiers” (CAO Group, LLC, priority 2010, dated 2020)
